The record followed here is PMC9719791 (Science translational medicine, 2021).

pIC50: −log10 of the molar value.

The target in this experiment is SUMO activating enzyme (SAE) (Homo sapiens, UniProt Q9UBE0+Q9UBT2). Nature of the experiment: E1-E2 HTRF transthiolation assay with recombinantly purified SAE. It counts as biochemical.
Sequence of SUMO activating enzyme (SAE) (Q9UBT2 whole entry): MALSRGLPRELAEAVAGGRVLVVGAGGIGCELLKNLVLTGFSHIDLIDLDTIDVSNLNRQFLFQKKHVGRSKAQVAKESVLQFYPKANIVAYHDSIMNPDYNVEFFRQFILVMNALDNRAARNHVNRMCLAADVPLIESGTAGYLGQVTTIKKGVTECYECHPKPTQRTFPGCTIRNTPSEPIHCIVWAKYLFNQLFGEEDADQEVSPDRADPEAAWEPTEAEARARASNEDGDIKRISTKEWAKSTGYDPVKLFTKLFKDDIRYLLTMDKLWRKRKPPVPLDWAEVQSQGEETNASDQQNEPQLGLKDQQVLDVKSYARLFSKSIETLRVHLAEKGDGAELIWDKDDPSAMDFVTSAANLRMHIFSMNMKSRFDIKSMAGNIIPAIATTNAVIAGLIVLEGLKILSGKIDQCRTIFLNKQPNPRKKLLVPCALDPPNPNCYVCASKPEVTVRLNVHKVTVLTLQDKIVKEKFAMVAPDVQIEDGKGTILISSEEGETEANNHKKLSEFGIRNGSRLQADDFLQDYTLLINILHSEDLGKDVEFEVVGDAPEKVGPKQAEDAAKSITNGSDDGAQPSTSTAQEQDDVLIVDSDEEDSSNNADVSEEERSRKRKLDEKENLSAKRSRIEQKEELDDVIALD
Sequence of SUMO activating enzyme (SAE) (Q9UBE0 whole entry): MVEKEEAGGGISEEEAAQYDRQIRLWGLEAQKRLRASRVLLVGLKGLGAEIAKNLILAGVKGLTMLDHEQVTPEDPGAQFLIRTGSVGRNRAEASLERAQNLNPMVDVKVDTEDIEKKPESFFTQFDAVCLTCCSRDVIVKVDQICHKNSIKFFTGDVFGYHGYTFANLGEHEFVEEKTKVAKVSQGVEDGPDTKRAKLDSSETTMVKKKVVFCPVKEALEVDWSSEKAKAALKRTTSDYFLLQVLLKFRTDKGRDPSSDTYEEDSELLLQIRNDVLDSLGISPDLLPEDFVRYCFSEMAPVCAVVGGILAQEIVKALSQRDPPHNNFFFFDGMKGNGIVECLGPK
Sequence of SUMO activating enzyme (SAE) (P63279 2-158 partner): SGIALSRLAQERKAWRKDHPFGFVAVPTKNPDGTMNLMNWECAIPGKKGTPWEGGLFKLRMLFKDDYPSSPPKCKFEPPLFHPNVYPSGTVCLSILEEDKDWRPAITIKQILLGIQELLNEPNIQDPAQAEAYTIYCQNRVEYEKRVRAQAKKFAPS

Usually pIC50 stands for the negative decadic logarithm of the IC50, by convention in mol/L. `Cc1sc(C(=O)c2cncnc2N[C@@H]2C[C@H](COS(N)(=O)=O)[C@@H](O)C2)cc1[C@@H]1NCCc2ccc(Cl)cc21` [TAK-981, ((1R,2S,4R)-4-((5-(4-((1R)-7-chloro-1,2,3,4-tetrahydroisoquinolin-1-yl)-5-methylthiophene-2-carbonyl)pyrimidin-4-yl)amino)-2-hydroxycyclopentyl)methyl sulfamate]: the pIC50 was 9.22.
